The source of these data is patent US4713445A, “Renin inhibitors and treatments using them” (priority 1983, dated 1987).

*1 amine or outer side, *2 acyl side, *3 side chain or, on linkers, in order; H or OH if unused. Where a SMILES comes first, the peptide text is derived from it. Where no end group is shown, it is not given here. [ ]: non-standard residue; d: D form. The star is where a group is joined. Leuψ(CH2NH)ValIleHisOH = CC[C@H](C)[C@H](NC(=O)[C@@H](NC[C@H](CC(C)C)N*)C(C)C)C(=O)N[C@@H](Cc1c[nH]cn1)C(=O)O; X5 = CC(C)C[C@@H](CN[C@H](C(=O)N[C@@H](Cc1c[nH]cn1)C(=O)NCCCCCN)C(C)C)N*; X2 = CC(C)C[C@@H](CN[C@H](C(=O)N[C@@H](Cc1c[nH]cn1)C(=O)NCCCN)C(C)C)N*; X1 = CC(C)C[C@H](N[*:1])[C@@H](O)C[C@H](C(=O)[*:2])C(C)C; Boc = CC(C)(C)OC(=O)*

In one assay the target is T1, human renin (Homo sapiens, UniProt P00797).
T1 construct: angiotensin-I released from human renin substrate by human resin in human plasma; from tissue; host or cells: human plasma (containing EDTA)
T1 sequence (P00797 67-406): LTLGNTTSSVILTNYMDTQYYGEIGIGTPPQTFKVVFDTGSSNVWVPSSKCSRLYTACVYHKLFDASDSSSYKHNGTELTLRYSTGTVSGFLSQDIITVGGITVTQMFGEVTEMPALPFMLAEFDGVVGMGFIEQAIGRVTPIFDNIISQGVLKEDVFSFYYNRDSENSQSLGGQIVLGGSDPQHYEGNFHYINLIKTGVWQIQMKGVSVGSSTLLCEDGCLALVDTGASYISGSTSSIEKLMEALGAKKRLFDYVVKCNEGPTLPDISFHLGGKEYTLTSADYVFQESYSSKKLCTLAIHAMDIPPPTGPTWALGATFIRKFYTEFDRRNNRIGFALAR
Briefly: human renin-renin substrate reaction in vitro; radioimmunoassay of angiotensin-I released in human plasma. The class given is biochemical. The note with it: Table 2; read-out: IC50 μM v/s human renin. An excerpt: Preliminary activity test results in the human […] substrate reaction in vitro are given, with comparative figures for the tetrapeptide analogue (III). […] The test results given herein are based on the methods described by J. A. Miller et al in Clinica Chimica Acta (1980) 101 5-15 and K. Poulsen and J. Jorgensen in J. Clin. Endocrinol. Metab. (1974) 39 816, and is based on the measurement, by radioimmunoassay, of angiotensin-I released from human renin substrate by human resin in human plasma. The inhibitor is dissolved in 0.01N HCl (10 μl) and added to hmman plasma (75 μl) containing EDTA, and angiotensin-I antibody (15 μl) in 3M-Tris/HCl buffer (pH 6.9). After incubation at 37° C. for 0-120 minutes, the enzymic reaction is quenched by the addition of ice-cold 0.25M Tris/HCl buffer (pH 7.4) containing 0.01% of bovine serum albumin. 125I-labelled angiotensin-I is added, followed by equilibration at 4° C. for 48 hours. Free and bound ligand are separated by the addition of dextrancoated charcoal, and the amount of bound radio-ligand determined in a gamma counter.
For the compound `CC[C@H](C)[C@H](NC(=O)[C@@H](C[C@H](O)[C@H](CC(C)C)NC(=O)[C@H](Cc1c[nH]cn1)NC(=O)[C@H](Cc1ccccc1)NC(=O)OC(C)(C)C)C(C)C)C(=O)N[C@@H](Cc1c[nH]cn1)C(=O)OC` [Example LI] (Boc-FH[X1]IH-OMe), the IC50 is 0.0035 µM.
In the case of `CC[C@H](C)[C@H](NC(=O)[C@@H](C[C@H](O)[C@H](CC(C)C)NC(=O)[C@H](Cc1c[nH]cn1)NC(=O)[C@H](Cc1ccccc1)NC(=O)OC(C)(C)C)C(C)C)C(=O)OC` [Example L], the IC50 was 0.005 µM.
Take `CC[C@H](C)[C@H](NC(=O)[C@@H](C[C@H](O)[C@H](CC(C)C)NC(=O)[C@H](Cc1c[nH]cn1)NC(=O)[C@@H](N)Cc1ccccc1)C(C)C)C(=O)N[C@@H](Cc1c[nH]cn1)C(=O)O` [Example XLVII] (H-FH[X1]IH-OH): the IC50 is 5 µM.
The same measure, in the same setting: next, `CC[C@H](C)[C@H](NC(=O)[C@@H](C[C@H](O)[C@H](CC(C)C)NC(=O)[C@H](Cc1c[nH]cn1)NC(=O)[C@H](Cc1ccccc1)NC(=O)OC(C)(C)C)C(C)C)C(=O)N[C@@H](Cc1c[nH]cn1)C(=O)O` [Example XLVI] (Boc-FH[X1]IH-OH): 0.007 µM; `CC[C@H](C)[C@H](NC(=O)[C@@H](C[C@H](O)[C@@H](N)CC(C)C)C(C)C)C(=O)N[C@@H](Cc1c[nH]cn1)C(=O)O` [XLIII]: 29 µM; `CC[C@H](C)[C@H](NC(=O)[C@@H](C[C@H](O)[C@@H](N)CC(C)C)C(C)C)C(=O)N[C@@H](Cc1c[nH]cn1)C(=O)N[C@@H](CCCCN)C(=O)O` [Example XLI]: 11 µM.

Still in this assay, the particulars now being: Table 5; human renin-renin substrate reaction in vitro; read-out: IC50.
Take `CC(C)C[C@@H](CN[C@@H](Cc1ccccc1)C(=O)N[C@H](C(=O)N[C@@H](Cc1ccc(O)cc1)C(=O)O)C(C)C)NC(=O)[C@H](Cc1c[nH]cn1)NC(=O)[C@H](Cc1ccccc1)NC(=O)[C@@H]1CCCN1C(=O)[C@@H](N)Cc1c[nH]cn1` [Example IX]: the IC50 worked out at 2.5 µM.
As to `CC(C)[C@H](NC(=O)[C@H](Cc1ccccc1)NC[C@H](Cc1ccccc1)NC(=O)[C@H](Cc1c[nH]cn1)NC(=O)[C@H](Cc1ccccc1)NC(=O)[C@@H]1CCCN1C(=O)[C@@H](N)Cc1c[nH]cn1)C(=O)N[C@@H](Cc1ccc(O)cc1)C(=O)O` [Example VIII], the IC50 was 1.3 µM.
As to `CC(C)[C@H](NC(=O)[C@H](Cc1ccccc1)NC[C@H](Cc1ccccc1)NC(=O)[C@H](Cc1c[nH]cn1)NC(=O)[C@H](Cc1ccccc1)NC(=O)[C@@H]1CCCN1C(=O)[C@H](Cc1c[nH]cn1)NC(=O)[C@@H]1CCCN1)C(=O)N[C@@H](Cc1ccc(O)cc1)C(=O)N[C@@H](CCCCN)C(=O)O` [Example XI], the IC50 is 0.05 µM.
On the same count and under the same terms, the result for `CC(C)C[C@@H](CN[C@@H](CC(C)C)C(=O)N[C@H](C(=O)N[C@@H](Cc1ccc(O)cc1)C(=O)O)C(C)C)NC(=O)[C@H](Cc1c[nH]cn1)NC(=O)[C@H](Cc1ccccc1)NC(=O)[C@@H]1CCCN1C(=O)[C@@H](N)Cc1c[nH]cn1` [Example I, H-His-Pro-Phe-His-Leu-reduced-Leu-Val-Tyr-OH] reads 1 µM; that for `CC(C)C[C@@H](CN[C@@H](CC(C)C)C(=O)N[C@H](C(=O)N[C@@H](Cc1ccc(O)cc1)C(=O)O)C(C)C)NC(=O)[C@H](Cc1c[nH]cn1)NC(=O)[C@H](Cc1ccccc1)NC(=O)[C@@H]1CCCN1C(=O)[C@H](N)Cc1c[nH]cn1` [Example IV, H-DHis-Pro-Phe-His-Leu-reduced-Leu-Val-Tyr-OH], 1 µM.
On the same count and under the same terms, next, “HPFHLVIH [corresponding nonisosteric peptide, reference compound]”: 400 µM; `CC[C@H](C)[C@H](NC(=O)[C@@H](NC[C@H](CC(C)C)NC(=O)[C@H](Cc1c[nH]cn1)NC(=O)[C@H](Cc1ccccc1)NC(=O)[C@@H]1CCCN1C(=O)[C@@H](N)Cc1c[nH]cn1)C(C)C)C(=O)N[C@@H](Cc1c[nH]cn1)C(=O)O` [Example V, H-His-Pro-Phe-His-Leu-reduced-Val-Ile-His-OH] (H-HPFH-{Leuψ(CH2NH)ValIleHisOH}): 0.26 µM.
In the case of `CC(C)C[C@@H](CN([C@@H](CC(C)C)C(=O)N[C@H](C(=O)N[C@@H](Cc1ccc(O)cc1)C(=O)O)C(C)C)S(=O)(=O)c1ccccc1)NC(=O)[C@H](Cc1c[nH]cn1)NC(=O)[C@H](Cc1ccccc1)NC(=O)[C@@H]1CCCN1C(=O)[C@@H](N)Cc1c[nH]cn1` [Example III, H-His-Pro-Phe-His-Leu-reduced (SO2 Ph)-Leu-Val-Tyr-OH], the IC50 came to 1.5 µM.
For the compound `CC(C)C[C@@H](CN[C@@H](CC(C)C)C(=O)N[C@H](C(=O)N[C@@H](Cc1ccc(O)cc1)C(=O)O)C(C)C)NC(=O)[C@H](Cc1c[nH]cn1)NC(=O)[C@H](Cc1ccccc1)NC(=O)[C@@H]1CCCN1` [Example II, H-Pro-Phe-His-Leu-reduced-Leu-Val-Tyr-OH], the IC50 came out at 17 µM.

Staying with this assay, now noted: Table I; human renin in human plasma; read-out: IC50, μM human.
Regarding `CC[C@H](C)[C@H](NC(=O)[C@@H](NC[C@H](CC(C)C)NC(=O)[C@H](Cc1c[nH]cn1)NC(=O)[C@H](Cc1ccccc1)NC(=O)[C@@H]1CCCN1C(=O)[C@@H](N)Cc1c[nH]cn1)C(C)C)C(=O)N[C@@H](Cc1c[nH]cn1)C(=O)N[C@H](CCCCN)C(=O)O` [XXI], the IC50 turned out to be 0.05 µM.
As for `CC(C)C[C@@H](CN[C@H](C(=O)N[C@@H](Cc1c[nH]cn1)C(=O)NCCCN)C(C)C)NC(=O)[C@H](Cc1c[nH]cn1)NC(=O)[C@H](Cc1ccccc1)NC(=O)[C@@H]1CCCN1C(=O)[C@H](Cc1c[nH]cn1)NC(=O)[C@@H]1CCCN1` [XVII] (H-PHPFH-X2), the IC50 was 4.5 µM.
With `CC[C@H](C)[C@H](NC(=O)[C@@H](NC[C@H](CC(C)C)NC(=O)[C@H](Cc1c[nH]cn1)NC(=O)[C@H](Cc1ccccc1)NC(=O)[C@H]1CCCN1C(=O)[C@@H](N)Cc1c[nH]cn1)C(C)C)C(=O)N[C@@H](Cc1c[nH]cn1)C(=O)O` [XXXII] (H-H[dP]FH-{Leuψ(CH2NH)ValIleHisOH}), the IC50 turned out to be 5.5 µM.
As for `CC[C@H](C)[C@H](NC(=O)[C@@H](NC[C@H](CC(C)C)NC(=O)[C@H](Cc1c[nH]cn1)NC(=O)[C@H](Cc1ccccc1)NC(=O)[C@@H]1CCCN1C(=O)[C@H](Cc1c[nH]cn1)NC(=O)[C@@H]1CCCN1)C(C)C)C(=O)N[C@@H](Cc1ccc(O)cc1)C(=O)NCCCCCN` [XX], the IC50 was 3 µM.
As to `CC[C@H](C)[C@H](NC(=O)[C@@H](NC[C@H](CC(C)C)NC(=O)[C@H](Cc1c[nH]cn1)NC(=O)[C@H](Cc1ccccc1)NC(=O)[C@@H]1CCCN1C(=O)[C@@H](N)CCCNC(=N)N)C(C)C)C(=O)N[C@@H](Cc1ccc(O)cc1)C(=O)O` [XXIV], the IC50 is 0.55 µM.
In the case of `CC[C@H](C)[C@H](NC(=O)[C@@H](NC[C@H](CC(C)C)NC(=O)[C@H](Cc1c[nH]cn1)NC(=O)[C@H](Cc1ccccc1)NC(=O)[C@@H]1CCCN1C(=O)[C@H](Cc1c[nH]cn1)NC(=O)[C@H]1CCCN1)C(C)C)C(=O)N[C@@H](Cc1c[nH]cn1)C(=O)O` [XXIII] (H-[dP]HPFH-{Leuψ(CH2NH)ValIleHisOH}), the IC50 was found to be 0.025 µM.
Consider `CC[C@H](C)[C@H](NC(=O)[C@@H](NC[C@H](CC(C)C)NC(=O)[C@H](Cc1c[nH]cn1)NC(=O)[C@H](Cc1ccccc1)NC(=O)[C@@H]1CCCN1C(=O)[C@H](Cc1c[nH]cn1)NC(=O)[C@@H]1CCCN1)C(C)C)C(=O)N[C@@H](Cc1c[nH]cn1)C(=O)N[C@@H](CCCCN)C(=O)O` [XIX], for which the IC50 stood at 0.008 µM.
With `CC[C@H](C)[C@H](NC(=O)[C@@H](NC[C@H](CC(C)C)NC(=O)[C@H](Cc1c[nH]cn1)NC(=O)[C@H](Cc1ccccc1)NC(=O)[C@@H]1CCCN1C(=O)[C@@H](N)Cc1c[nH]cn1)C(C)C)C(=O)N[C@@H](Cc1c[nH]cn1)C(=O)N[C@@H](CCCCN)C(=O)O` [XXXI], the IC50 amounted to 0.06 µM.
In the case of `CC[C@H](C)[C@H](NC(=O)[C@@H](NC[C@H](CC(C)C)NC(=O)[C@H](Cc1c[nH]cn1)NC(=O)[C@H](Cc1ccccc1)NC(=O)[C@@H]1CCCN1C(=O)[C@@H](N)Cc1c[nH]cn1)C(C)C)C(=O)N[C@H](Cc1ccc(O)cc1)C(=O)O` [XVI], the IC50 was 1 µM.
Take `CC(C)C[C@@H](CN[C@H](C(=O)N[C@@H](Cc1c[nH]cn1)C(=O)NCCCCCN)C(C)C)NC(=O)[C@H](Cc1c[nH]cn1)NC(=O)[C@H](Cc1ccccc1)NC(=O)[C@@H]1CCCN1C(=O)[C@H](Cc1c[nH]cn1)NC(=O)[C@@H]1CCCN1` [XVIII] (H-PHPFH-X5): the IC50 stood at 3 µM.
Turning to `CC[C@H](C)[C@H](NC(=O)[C@@H](NC[C@H](CC(C)C)NC(=O)[C@H](Cc1c[nH]cn1)NC(=O)[C@H](Cc1ccccc1)NC(=O)[C@@H]1CCCN1C(=O)[C@H](Cc1c[nH]cn1)NC(=O)[C@@H]1CCCN1)C(C)C)C(=O)N[C@@H](Cc1c[nH]cn1)C(=O)N[C@H](CCCCN)C(=O)O` [XXXVIII], the IC50 is 0.1 µM.
Consider `CC[C@H](C)[C@H](NC(=O)[C@@H](NC[C@H](CC(C)C)NC(=O)[C@H](Cc1c[nH]cn1)NC(=O)[C@H](Cc1ccccc1)NC(=O)[C@@H]1CCCN1C(=O)[C@H](Cc1c[nH]cn1)NC(=O)[C@@H]1CCCN1)C(C)C)C(=O)N[C@@H](Cc1c[nH]cn1)C(=O)O` [XXII] (H-PHPFH-{Leuψ(CH2NH)ValIleHisOH}), for which the IC50 was 0.01 µM.
